Assay results as given in publication PMC10689823, “Discovery of a Drug-like, Natural Product-Inspired DCAF11 Ligand Chemotype” (Nature Communications, 2023).

Biological target: BRD4S-TagBFP reporter (Homo sapiens, UniProt O60885)
Experiment: FACS-based CRISPR/Cas9 BRD4 protein stability screen
Details: Mageck_Gene level

Compound Cc1sc2c(c1C)C(c1ccc(Cl)cc1)=NC(CC(=O)NCCOCCOCCOCCOc1c(Br)cc(C=C3C(=O)Nc4ccc(Br)cc43)cc1Br)c1nnc(C)n1-2 (centres unmarked) [Compound 10] has a High_lfc (Gene DCAF1) of 0.07, a High_logP (Gene DCAF1) of 0.4 and a Low_lfc (Gene DCAF1) of 0.08. The Low_logP (Gene DCAF1) was 0.47, the High_lfc (Gene DCAF4) was 0.04 and the High_logP (Gene DCAF4) was 0.26. For the same compound, the Low_lfc (Gene DCAF4) was 0.5, the Low_logP (Gene DCAF4) was 1.14 and the High_lfc (Gene DCAF5) was -0.31. For the same compound, the High_logP (Gene DCAF5) was 0.03, the Low_lfc (Gene DCAF5) was -0.2 and the Low_logP (Gene DCAF5) was 0.09. The High_lfc (Gene DCAF6) was -0.27, the High_logP (Gene DCAF6) was 0.06 and the Low_lfc (Gene DCAF6) was 0.14. It also gave a Low_logP (Gene DCAF6) of 0.62, a High_lfc (Gene DCAF7) of -0.06 and a High_logP (Gene DCAF7) of 0.19. It also gave a Low_lfc (Gene DCAF7) of 0.05, a Low_logP (Gene DCAF7) of 0.29 and a High_lfc (Gene DCAF8) of -0.08. It also gave a High_logP (Gene DCAF8) of 0.19, a Low_lfc (Gene DCAF8) of 0.22 and a Low_logP (Gene DCAF8) of 0.46. The High_lfc (Gene DCAF12) was -0.19, the High_logP (Gene DCAF12) was 0 and the Low_lfc (Gene DCAF12) was -0.38. For the same compound, the Low_logP (Gene DCAF12) was 0, the High_lfc (Gene DCAF13) was -0.32 and the High_logP (Gene DCAF13) was 0.14. For the same compound, the Low_lfc (Gene DCAF13) was -0.17, the Low_logP (Gene DCAF13) was 0.23 and the High_lfc (Gene DCAF15) was 0.02. The High_logP (Gene DCAF15) was 0.29, the Low_lfc (Gene DCAF15) was 0.34 and the High_lfc (Gene DCAF16) was 0.41. For the same compound, the High_logP (Gene DCAF16) was 1.29, the Low_lfc (Gene DCAF16) was 0.15 and the Low_logP (Gene DCAF16) was 0.08. For the same compound, the High_lfc (Gene DCAF17) was -0.4, the High_logP (Gene DCAF17) was 0.08 and the Low_lfc (Gene DCAF17) was -0.25. It also gave a Low_logP (Gene DCAF17) of 0.08, a High_lfc (Gene DCUN1D1) of -0.16 and a High_logP (Gene DCUN1D1) of 0.04. It also gave a Low_lfc (Gene DCUN1D1) of -0.14, a Low_logP (Gene DCUN1D1) of 0.41 and a High_lfc (Gene DCUN1D2) of -0.24. For the same compound, the High_logP (Gene DCUN1D2) was 0.01, the Low_lfc (Gene DCUN1D2) was 0.34 and the Low_logP (Gene DCUN1D2) was 0.85. It also gave a High_lfc (Gene DCUN1D3) of 0.11, a High_logP (Gene DCUN1D3) of 0.22 and a Low_lfc (Gene DCUN1D3) of 0.24. The Low_logP (Gene DCUN1D3) was 1.2, the High_lfc (Gene DCUN1D4) was -0.01 and the High_logP (Gene DCUN1D4) was 0.07. It also gave a Low_lfc (Gene DCUN1D4) of 0.03, a Low_logP (Gene DCUN1D4) of 0.28 and a High_lfc (Gene DCUN1D5) of 0.22. The High_logP (Gene DCUN1D5) was 0.38, the Low_lfc (Gene DCUN1D5) was -0.23 and the Low_logP (Gene DCUN1D5) was 0.04. It also gave a High_lfc (Gene DDA1) of 0.21, a High_logP (Gene DDA1) of 0.55 and a Low_lfc (Gene DDA1) of -0.07. It also gave a Low_logP (Gene DDA1) of 0.09, a High_lfc (Gene DDB1) of 1.6 and a Low_lfc (Gene DDB1) of -0.07. The Low_logP (Gene DDB1) was 0.14, the High_lfc (Gene DDB2) was -0.17 and the High_logP (Gene DDB2) was 0.1. The Low_lfc (Gene DDB2) was 0.02, the Low_logP (Gene DDB2) was 0.41 and the High_lfc (Gene DET1) was 0.13. For the same compound, the High_logP (Gene DET1) was 0.2, the Low_lfc (Gene DET1) was 0.1 and the Low_logP (Gene DET1) was 0.55. It also gave a High_lfc (Gene DHX15) of 0.88, a High_logP (Gene DHX15) of 3.08 and a Low_lfc (Gene DHX15) of 0.33. For the same compound, the Low_logP (Gene DHX15) was 0.15, the High_lfc (Gene DTL) was -0.32 and the High_logP (Gene DTL) was 0.12. The Low_lfc (Gene DTL) was 0.6, the Low_logP (Gene DTL) was 1.9 and the High_lfc (Gene ECT2L) was 0.08. It also gave a High_logP (Gene ECT2L) of 0.35, a Low_lfc (Gene ECT2L) of 0.18 and a Low_logP (Gene ECT2L) of 0.73. It also gave a High_lfc (Gene EED) of -0.14, a High_logP (Gene EED) of 0.1 and a Low_lfc (Gene EED) of -0.33. For the same compound, the Low_logP (Gene EED) was 0.06, the High_lfc (Gene EIF4A1) was -0.23 and the High_logP (Gene EIF4A1) was 0.17. It also gave a Low_lfc (Gene EIF4A1) of 0.22, a Low_logP (Gene EIF4A1) of 0.27 and a High_lfc (Gene EIF4A3) of -0.5. It also gave a High_logP (Gene EIF4A3) of 0.12, a Low_lfc (Gene EIF4A3) of 0.83 and a Low_logP (Gene EIF4A3) of 3.36. It also gave a High_lfc (Gene ELOA2) of 0.27, a High_logP (Gene ELOA2) of 1.5 and a Low_lfc (Gene ELOA2) of -0.21. It also gave a Low_logP (Gene ELOA2) of 0.02, a High_lfc (Gene ELOA3) of -0.14 and a High_logP (Gene ELOA3) of 0.04. It also gave a Low_lfc (Gene ELOA3) of -0.68, a Low_logP (Gene ELOA3) of 0 and a High_lfc (Gene ELOA3D) of -0.17. It also gave a High_logP (Gene ELOA3D) of 0.16, a Low_lfc (Gene ELOA3D) of -0.44 and a Low_logP (Gene ELOA3D) of 0.05. For the same compound, the High_lfc (Gene ELOA) was 0.14, the High_logP (Gene ELOA) was 0.38 and the Low_lfc (Gene ELOA) was 0.01. It also gave a Low_logP (Gene ELOA) of 0.08, a High_lfc (Gene ELOB) of 0.32 and a High_logP (Gene ELOB) of 1.07. It also gave a Low_lfc (Gene ELOB) of 0.26, a Low_logP (Gene ELOB) of 0.54 and a High_lfc (Gene ELOC) of 0.2. For the same compound, the High_logP (Gene ELOC) was 0.44, the Low_lfc (Gene ELOC) was 0.2 and the Low_logP (Gene ELOC) was 0.9. It also gave a High_lfc (Gene ENC1) of -0.31, a High_logP (Gene ENC1) of 0 and a Low_lfc (Gene ENC1) of -0.06. It also gave a Low_logP (Gene ENC1) of 0.22, a High_lfc (Gene EPHA4) of -0.08 and a High_logP (Gene EPHA4) of 0.25. The Low_lfc (Gene EPHA4) was -0.27, the Low_logP (Gene EPHA4) was 0.02 and the High_lfc (Gene ERCC8) was -0.71. It also gave a High_logP (Gene ERCC8) of 0.04, a Low_lfc (Gene ERCC8) of -0.42 and a Low_logP (Gene ERCC8) of 0.02. It also gave a High_lfc (Gene ESCO1) of 0.09, a High_logP (Gene ESCO1) of 0.53 and a Low_lfc (Gene ESCO1) of -0.29. It also gave a Low_logP (Gene ESCO1) of 0.05, a High_lfc (Gene FAM9A) of -0.13 and a High_logP (Gene FAM9A) of 0.02. It also gave a Low_lfc (Gene FAM9A) of -0.08, a Low_logP (Gene FAM9A) of 0.64 and a High_lfc (Gene FBXL2) of -0.04. For the same compound, the High_logP (Gene FBXL2) was 0.25, the Low_lfc (Gene FBXL2) was -0.25 and the Low_logP (Gene FBXL2) was 0.03. The High_lfc (Gene FBXL3) was -0.55, the High_logP (Gene FBXL3) was 0 and the Low_lfc (Gene FBXL3) was 0. The Low_logP (Gene FBXL3) was 0.15, the High_lfc (Gene FBXL4) was -0.13 and the High_logP (Gene FBXL4) was 0.04. The Low_lfc (Gene FBXL4) was 0.11, the Low_logP (Gene FBXL4) was 0.32 and the High_lfc (Gene FBXL5) was -0.03. The High_logP (Gene FBXL5) was 0.1, the Low_lfc (Gene FBXL5) was -0.22 and the Low_logP (Gene FBXL5) was 0.05. The High_lfc (Gene FBXL6) was -0.15, the High_logP (Gene FBXL6) was 0.09 and the Low_lfc (Gene FBXL6) was -0.18. It also gave a Low_logP (Gene FBXL6) of 0.14, a High_lfc (Gene FBXL7) of -0.1 and a High_logP (Gene FBXL7) of 0.12. For the same compound, the Low_lfc (Gene FBXL7) was 0.04, the Low_logP (Gene FBXL7) was 0.13 and the High_lfc (Gene FBXL8) was -0.02. For the same compound, the High_logP (Gene FBXL8) was 0.08, the Low_lfc (Gene FBXL8) was -0.1 and the Low_logP (Gene FBXL8) was 0.23. It also gave a High_lfc (Gene FBXL12) of -0.02, a High_logP (Gene FBXL12) of 0.03 and a Low_lfc (Gene FBXL12) of 0.09. The Low_logP (Gene FBXL12) was 0.2, the High_lfc (Gene FBXL13) was 0.02 and the High_logP (Gene FBXL13) was 0.26. It also gave a Low_lfc (Gene FBXL13) of 0.01, a Low_logP (Gene FBXL13) of 0.21 and a High_lfc (Gene FBXL14) of -0.22. The High_logP (Gene FBXL14) was 0.01, the Low_lfc (Gene FBXL14) was -0.05 and the Low_logP (Gene FBXL14) was 0.13. The High_lfc (Gene FBXL15) was 0.13, the High_logP (Gene FBXL15) was 0.24 and the Low_lfc (Gene FBXL15) was 0.16. The Low_logP (Gene FBXL15) was 0.21, the High_lfc (Gene FBXL16) was 0.23 and the High_logP (Gene FBXL16) was 0.22. It also gave a Low_lfc (Gene FBXL16) of 0.16, a Low_logP (Gene FBXL16) of 0.37 and a High_lfc (Gene FBXL17) of -0.14. It also gave a High_logP (Gene FBXL17) of 0.03, a Low_lfc (Gene FBXL17) of -0.04 and a Low_logP (Gene FBXL17) of 0.45. It also gave a High_lfc (Gene FBXL18) of 0.05 and a High_logP (Gene FBXL18) of 0.34.
